Source: patent US20090163461A1, “Ligand for Vesicular Acetylcholine Transporter” (priority 2005, published 2009)

Columns and labels:
[1] = Tissue distribution of radioactivity after intravenous injection in rats; format: in vivo; conditions: rat
Description: From the tail vein of each rat, an injection containing 20 MBq of (−)-[^11C]-o-MeVES (0.2 ml) was administered. At 5 minutes, 15 minutes, 30 minutes, and 60 minutes after administration, the rats were killed by cervical dislocation, and blood was drawn from the heart using a syringe, after which tissues such as the heart, lungs, liver, and brain were extirpated, and the radioactivity in each tissue was measured using a gamma counter. Each tissue was also weighed.

VAChT in the brain = target: T1, VAChT in the brain (Rattus norvegicus, UniProt Q62666); assay: Rat brain ex vivo autoradiography; format: in vivo; conditions: 110-120 MBq i.v., 15 or 30 minutes after administration
T1 construct: from tissue; host or cells: brain of living rats, tissue counted or sectioned after killing
T1 sequence (Q62666 1-530): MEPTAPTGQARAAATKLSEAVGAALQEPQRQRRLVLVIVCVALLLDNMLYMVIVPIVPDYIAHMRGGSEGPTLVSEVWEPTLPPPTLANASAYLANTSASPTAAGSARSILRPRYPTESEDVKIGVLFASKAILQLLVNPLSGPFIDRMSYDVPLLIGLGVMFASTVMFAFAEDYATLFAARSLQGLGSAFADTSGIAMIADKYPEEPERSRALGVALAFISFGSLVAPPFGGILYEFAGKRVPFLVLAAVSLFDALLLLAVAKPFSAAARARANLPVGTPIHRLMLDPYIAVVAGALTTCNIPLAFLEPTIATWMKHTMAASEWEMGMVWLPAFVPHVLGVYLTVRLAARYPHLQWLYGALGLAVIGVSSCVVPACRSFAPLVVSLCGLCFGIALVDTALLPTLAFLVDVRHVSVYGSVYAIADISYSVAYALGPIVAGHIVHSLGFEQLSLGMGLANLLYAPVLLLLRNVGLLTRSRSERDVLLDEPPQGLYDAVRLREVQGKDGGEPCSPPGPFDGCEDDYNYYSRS
Description: To the caudal vein of each rat, 110-120 MBq of (−)-[^11C]-o-MeVES was administered, and the rats were killed by cervical dislocation and had the brain extirpated 15 minutes after administration for the first rat, or 30 minutes after administration for the second rat. The extirpated brain was immediately frozen with dry ice, and a brain section 20 μm in thickness was prepared using a cryomicrotome. The brain section was mounted on a glass plate, this section was dried on a hot plate (60° C.), and images of radioactivity distribution were obtained by radioluminography.

VAChT = assay: PET brain imaging of learning disability model (neurolysis) monkeys and healthy monkeys; format: in vivo, monkey; conditions: 185-740 MBq i.v., images 15 minutes to 60 minutes after administration
Description: 185-740 MBq of (−)-[^11C]-o-MeVES was administered to a vein of each of learning disability model monkeys (neurolysis monkeys) created by selectively destroying the p75NTR positive cells (ACh neurons) in the right hemisphere of the brain with 192-Saporin (manufactured by Advanced Targeting Systems) and healthy monkeys, and image data were collected using PET for animals (PET; manufactured by Hamamatsu Photonics K.K., SHR-7700) at 10 seconds to 91 minutes after administration. The image data obtained at 15 minutes to 60 minutes after administration were picturized; the photographs thus obtained are shown in FIG. 4.

[11CH3]c1ccccc1C1CCN(C2CCCC[C@H]2O)CC1 (single isomer, unassigned; (-)) [(−)-[^11C]-o-MeVES, (−)-[^11C]-2-(4-(2-methylphenyl)piperidino)cyclohexanol]
Radioactivity level blood 5 min ([1]; i.v. 20 MBq, blood, 5 min, % of administered radioactivity per gram of tissue, mean ± S.D. n = 4-6): 0.45 ± 0.04% | Radioactivity level blood 15 min ([1]; i.v. 20 MBq, blood, 15 min, % of administered radioactivity per gram of tissue, mean ± S.D. n = 4-6): 0.27 ± 0.03% | Radioactivity level blood 30 min ([1]; i.v. 20 MBq, blood, 30 min, % of administered radioactivity per gram of tissue, mean ± S.D. n = 4-6): 0.24 ± 0.02% | Radioactivity level blood 60 min ([1]; i.v. 20 MBq, blood, 60 min, % of administered radioactivity per gram of tissue, mean ± S.D. n = 4-6): 0.18 ± 0.02% | Radioactivity level brain 5 min ([1]; i.v. 20 MBq, brain, 5 min, % of administered radioactivity per gram of tissue, mean ± S.D. n = 4-6): 5.47 ± 0.44% | Radioactivity level brain 15 min ([1]; i.v. 20 MBq, brain, 15 min, % of administered radioactivity per gram of tissue, mean ± S.D. n = 4-6): 4.54 ± 0.54% | Radioactivity level brain 30 min ([1]; i.v. 20 MBq, brain, 30 min, % of administered radioactivity per gram of tissue, mean ± S.D. n = 4-6): 4.71 ± 0.45% | Radioactivity level brain 60 min ([1]; i.v. 20 MBq, brain, 60 min, % of administered radioactivity per gram of tissue, mean ± S.D. n = 4-6): 3.86 ± 0.28% | Radioactivity level heart 5 min ([1]; i.v. 20 MBq, heart, 5 min, % of administered radioactivity per gram of tissue, mean ± S.D. n = 4-6): 3.37 ± 0.30% | Radioactivity level heart 15 min ([1]; i.v. 20 MBq, heart, 15 min, % of administered radioactivity per gram of tissue, mean ± S.D. n = 4-6): 1.82 ± 0.19% | Radioactivity level heart 30 min ([1]; i.v. 20 MBq, heart, 30 min, % of administered radioactivity per gram of tissue, mean ± S.D. n = 4-6): 1.52 ± 0.11% | Radioactivity level heart 60 min ([1]; i.v. 20 MBq, heart, 60 min, % of administered radioactivity per gram of tissue, mean ± S.D. n = 4-6): 0.96 ± 0.02% | Radioactivity level kidney 5 min ([1]; i.v. 20 MBq, kidney, 5 min, % of administered radioactivity per gram of tissue, mean ± S.D. n = 4-6): 11.10 ± 4.31% | Radioactivity level kidney 15 min ([1]; i.v. 20 MBq, kidney, 15 min, % of administered radioactivity per gram of tissue, mean ± S.D. n = 4-6): 7.52 ± 0.40% | Radioactivity level kidney 30 min ([1]; i.v. 20 MBq, kidney, 30 min, % of administered radioactivity per gram of tissue, mean ± S.D. n = 4-6): 6.02 ± 0.09% | Radioactivity level kidney 60 min ([1]; i.v. 20 MBq, kidney, 60 min, % of administered radioactivity per gram of tissue, mean ± S.D. n = 4-6): 4.15 ± 0.50% | Radioactivity level liver 5 min ([1]; i.v. 20 MBq, liver, 5 min, % of administered radioactivity per gram of tissue, mean ± S.D. n = 4-6): 2.58 ± 0.23% | Radioactivity level liver 15 min ([1]; i.v. 20 MBq, liver, 15 min, % of administered radioactivity per gram of tissue, mean ± S.D. n = 4-6): 2.93 ± 0.38% | Radioactivity level liver 30 min ([1]; i.v. 20 MBq, liver, 30 min, % of administered radioactivity per gram of tissue, mean ± S.D. n = 4-6): 3.22 ± 0.76% | Radioactivity level liver 60 min ([1]; i.v. 20 MBq, liver, 60 min, % of administered radioactivity per gram of tissue, mean ± S.D. n = 4-6): 3.28 ± 0.32% | Radioactivity level lung 5 min ([1]; i.v. 20 MBq, lung, 5 min, % of administered radioactivity per gram of tissue, mean ± S.D. n = 4-6): 16.55 ± 2.56% | Radioactivity level lung 15 min ([1]; i.v. 20 MBq, lung, 15 min, % of administered radioactivity per gram of tissue, mean ± S.D. n = 4-6): 10.38 ± 2.48% | Radioactivity level lung 30 min ([1]; i.v. 20 MBq, lung, 30 min, % of administered radioactivity per gram of tissue, mean ± S.D. n = 4-6): 8.74 ± 0.34% | Radioactivity level lung 60 min ([1]; i.v. 20 MBq, lung, 60 min, % of administered radioactivity per gram of tissue, mean ± S.D. n = 4-6): 4.81 ± 0.76% | Radioactivity level muscle 5 min ([1]; i.v. 20 MBq, muscle, 5 min, % of administered radioactivity per gram of tissue, mean ± S.D. n = 4-6): 1.57 ± 0.27% | Radioactivity level muscle 15 min ([1]; i.v. 20 MBq, muscle, 15 min, % of administered radioactivity per gram of tissue, mean ± S.D. n = 4-6): 1.42 ± 0.44% | Radioactivity level muscle 30 min ([1]; i.v. 20 MBq, muscle, 30 min, % of administered radioactivity per gram of tissue, mean ± S.D. n = 4-6): 1.18 ± 0.24% | Radioactivity level muscle 60 min ([1]; i.v. 20 MBq, muscle, 60 min, % of administered radioactivity per gram of tissue, mean ± S.D. n = 4-6): 1.00 ± 0.16% | Radioactivity level pancreas 5 min ([1]; i.v. 20 MBq, pancreas, 5 min, % of administered radioactivity per gram of tissue, mean ± S.D. n = 4-6): 8.44 ± 1.93% | Radioactivity level pancreas 15 min ([1]; i.v. 20 MBq, pancreas, 15 min, % of administered radioactivity per gram of tissue, mean ± S.D. n = 4-6): 12.13 ± 2.23% | Radioactivity level pancreas 30 min ([1]; i.v. 20 MBq, pancreas, 30 min, % of administered radioactivity per gram of tissue, mean ± S.D. n = 4-6): 11.53 ± 2.67% | Radioactivity level pancreas 60 min ([1]; i.v. 20 MBq, pancreas, 60 min, % of administered radioactivity per gram of tissue, mean ± S.D. n = 4-6): 10.67 ± 1.22% | Radioactivity level small intestine 5 min ([1]; i.v. 20 MBq, small intestine, 5 min, % of administered radioactivity per gram of tissue, mean ± S.D. n = 4-6): 6.19 ± 0.58% | Radioactivity level small intestine 15 min ([1]; i.v. 20 MBq, small intestine, 15 min, % of administered radioactivity per gram of tissue, mean ± S.D. n = 4-6): 8.76 ± 1.66% | Radioactivity level small intestine 30 min ([1]; i.v. 20 MBq, small intestine, 30 min, % of administered radioactivity per gram of tissue, mean ± S.D. n = 4-6): 8.48 ± 1.85% | Radioactivity level small intestine 60 min ([1]; i.v. 20 MBq, small intestine, 60 min, % of administered radioactivity per gram of tissue, mean ± S.D. n = 4-6): 8.90 ± 0.50% | Radioactivity level spleen 5 min ([1]; i.v. 20 MBq, spleen, 5 min, % of administered radioactivity per gram of tissue, mean ± S.D. n = 4-6): 4.97 ± 1.06% | Radioactivity level spleen 15 min ([1]; i.v. 20 MBq, spleen, 15 min, % of administered radioactivity per gram of tissue, mean ± S.D. n = 4-6): 5.90 ± 0.51% | Radioactivity level spleen 30 min ([1]; i.v. 20 MBq, spleen, 30 min, % of administered radioactivity per gram of tissue, mean ± S.D. n = 4-6): 5.56 ± 0.52% | Radioactivity level spleen 60 min ([1]; i.v. 20 MBq, spleen, 60 min, % of administered radioactivity per gram of tissue, mean ± S.D. n = 4-6): 4.24 ± 0.35% | brain accumulation ([1]; i.v., 5-60 min): retainable | organ accumulation / exposure ([1]; i.v., 5-60 min): no organs showing particularly high accumulation | local distribution in the brain (autoradiography) (VAChT in the brain): agreed well with the in vitro local distribution of (−)-[^3H]-vesamicol | RI accumulation in healthy monkeys (PET) (VAChT; healthy monkeys): no change in the accumulation | RI accumulation in the cerebral cortex on the neurolysis side compared to the healthy side (PET) (VAChT; neurolysis monkeys): significant reduction in RI accumulation
